The record followed here is patent US20050074463A1, “Therapeutic vaccination method, mutated peptides of hiv reverse transciptase and their use for vaccination and diagnostic purposes” (Universite Pierre et Marie Curie-paris VI, priority 2001, published 2005).

Assay [1] has as its system gamma-IFN-producing CD8 cells in PBMCs from patient 201#5. In words: ELISpot-γIFN assay, ex vivo recognition of epitope peptides by PBMCs. The note with it: PBMCs from patient 201#5 treated with NRTIs and carrying RT mutation 41 (M>L), no prior stimulation.
Assay [2] deals with Wild-type peptide 33-41 of HIV-1 reverse transcriptase (HIV-1).
For assay [3], the target named is Mutated peptide 33-41 of HIV-1 reverse transcriptase (mutation 41 M>L) (HIV-1).

For ALVEICTEL [mutated peptide 33-41], the “frequency of recognition (cells secreting γIFN), SFC/10^6 PBMCs” value in assay [1] was 95 SFC/10^6 PBMCs.

For ALVEICTEM [wild-type peptide 33-41], the “frequency of recognition (cells secreting γIFN), SFC/10^6 PBMCs” value in assay [1] turned out to be 3 SFC/10^6 PBMCs.

With “PBMCs from patient 201#5 (cells without a defined receptor)”, the SFC/10^6 PBMCs (ELISpot gamma-IFN) (SFC/10^6 PBMCs) in assay [2] was 3; in assay [3], 95.
